Patent publication US7893263B2, “Structural analogs of corosolic acid having anti-diabetic and anti-inflammatory properties” (Laila Nutraceuticals, priority 2004, dated 2011)

Columns and labels:
[1] = system: Albino wistar rats; experiment: Hypoglycemic activity: inhibition of sucrose-induced raise in serum glucose levels (SGL); format: in vivo; set-up: Inhibitory rate (serum glucose level inhibitory rate): unit not given here; details: oral dose 1 mg/Kg; for SGL (mean ± SE): 20 mL/kg of 20% sucrose orally after 30 minutes, blood drawn one hour after treatment, groups of six rats; for Inhibitory rate (serum glucose level inhibitory rate): mean increase in serum glucose levels of treated vs control groups
Experimental: Hypoglycemic activity: Hypoglycemic activity was tested by the inhibition of sucrose-induced raise in serum glucose levels (SGL), by the test substances in Albino wistar rats. The procedure involves fasting the rats for overnight at ad libitum water, numbered weighed and randomly divided into groups of six animals each. Prior to treatment blood samples were drawn from sinus orbital plexus of all animals using heparin coated glass capillaries under mild ether anesthesia. The blood samples were tested for serum glucose levels using enzymatic GOD/POD method. […] SGL=(test OD/Standard OD)×100 and the results were expressed in mg/dL. All the groups were treated orally with corresponding test substances, standard, vehicle (5% gum acacia). After 30 minutes, all animals were given 20 mL/kg of 20% sucrose solution orally using gastric tube. One hour after treatment, blood samples were drawn again under mild ether anesthesia and tested for serum glucose levels in a same procedure as described above for initial serum glucose estimation. The data was subjected to statistical treatment using t-test and inhibitory rate was calculated by comparing mean increase in serum glucose levels of control and treated groups. The corosolic acid analogs of this invention are found to show better hypoglycemic activity (Table 1; hypoglycemic activity is expressed in serum glucose level inhibitory rate values; higher the inhibitory rate value, higher is the activity) than the corosolic acid.

[2] = system: 5-Lipoxygenase; experiment: 5-Lipoxygenase inhibitory activity, colorimetric method (ferric xylenol orange, linoleic acid); format: biochemical
Experimental: 5-Lipoxygenase activity: The corosolic acid analogs were screened for their 5-Lipoxygenase inhibitory potential using colorimetric method. The assay mixture contained 50 mM phosphate buffer pH 6.3, 5-Lipoxygenase, various concentrations of test substances in dimethyl sulphoxide and linoleic acid in a total volume of 0.5 mL, after 5 min incubation of above reaction mixture, 0.5 mL ferric xylenol orange reagent was added and OD was measured after two minutes at 585 nm using spectrophotometer. Controls were run along with test in a similar manner except using vehicle instead of test substance solution. Percent inhibition was calculated by comparing absorbance of test solution with that of control.
The corosolic acid analogs of this invention are found to show good 5-lipoxygenase activity (Table 2; 5-lipoxygenase activity is expressed in % of inhibition at 100 μM and 250 μM; higher the % inhibitory values, higher is the activity).

[3] = system: Brine shrimp (Artemia salina) nauplii; experiment: in vivo; details: 24 h at 37° C., 10 nauplii per vial
Experimental: (§1) Brine shrimp lethality: Brine shrimp (Artemia salina) nauplii were hatched using brine shrimp eggs in a conical shaped vessel (1 L), filled with sterile artificial sea water (prepared using sea salt 38 g/L and adjusted to pH 8.5 using 1 N NaOH) under constant aeration for 48 h. After hatching, 10 nauplii were drawn through a pepette and placed in each vial containing 4.5 mL brine solution and added various concentrations of drug solutions and volume was made upto 5 mL using brine solution and maintained at 37° C. for 24 h under the light of incandescent lamps and surviving larvae were counted. Each experiment was conducted along with control (vehicle treated), at various concentrations of the test substance in each set that contains 6 tubes and the average results are reported. The percentage lethality was determined by comparing the mean mortal larvae of test and control tubes. LC50 values were obtained from the plot of concentration (μg) vs. percentage lethality. Podophyllotoxin was used as a positive control.
(§2) The corosolic acid analogs of this invention are found to show significant brine shrimp lethality (Table 3; brine shrimp lethality is expressed in LC50 at μM concentration; lower the LC50 value, higher is the activity).

[4] = in vivo; details: Artemia salina (brine shrimp), pH 8.5; 24 h at 37° C., 10 nauplii per vial
Experimental: as §1, §2

| Molecule | SGL (mean ± SE) [1] | Inhibitory rate (serum glucose level inhibitory rate) [1] | % inhibition of 5-Lox activity ([2]; 250 μM) | LC50 [3] | 5-LOX inhibitory activity (in words) [2] | % inhibition of 5-Lox activity ([2]; 100 μM) | LC50 at 24 h [4] |
| --- | --- | --- | --- | --- | --- | --- | --- |
| COc1cc(C(=O)OC(=O)C23CCC(C)C(C)C2C2=CCC4C5(C)CC(O)C(O)C(C)(C)C5CCC4(C)C2(C)CC3)cc(OC)c1OC (centres unmarked) [Compound 25, Corosolyl tri-O-methylgallate] | 131.84 ± 7.77 mg/dL | 9.84 | 38.83% | > 200 µM |  |  |  |
| CC1CCC23CCC4(C)C(=CC(OC2=O)C2C5(C)CC(O)C(O)C(C)(C)C5CCC24C)C3C1C (stereo not drawn) [Compound 26, 2α,3β-Dihydroxyurs-12-en-11,28-olide] | 136.03 ± 4.43 mg/dL | 6.97 | 10.47% | 87 µM |  |  |  |
| C[C@H]1[C@H](C)CC[C@]2(C(=O)O)CC[C@]3(C)C(=CC[C@@H]4[C@@]5(C)C[C@@H](O)[C@H](O)C(C)(C)[C@@H]5CC[C@]43C)[C@H]12 [Corosolic acid, 2α-hydroxyursolic acid] | 121.43 ± 6.27 mg/dL | 9.78 | 29.26% |  | on par with 3-O-acetyl-11-keto-β-boswellic acid (AKBA) | 13.48% | 3 µM |
| COc1cc([C@@H]2c3cc4c(cc3[C@H](O)[C@H]3COC(=O)[C@H]23)OCO4)cc(OC)c1OC [podophyllotoxin, Podophyllotoxin, reference compound] |  |  |  |  |  |  | 7.7 µM |
| Corosolinol [Compound 23] | 113.06 ± 2.61 mg/dL | 30.59 | 19.63% | 30.7 µM |  | 2.91% |  |
